# In patent publication US9895338B1, “Cobalt-polypyridyl complex for treatment of cancer, a pharmaceutical composition and a kit comprising it” (Macau University of Science and Technology, priority 2016, dated 2018):
# pIC50: −log10 of the molar value. Where two headings read alike, the source gives them in different places.
# Columns and labels:
# LLC-1 (lung cancer) = assay: MTT cytotoxicity assay, LLC-1; assay type: cell-based; settings: LLC-1, MTT, 72 h
# Description: (§1) All prepared cobalt-polypyridyl complexes were dissolved in DMSO at a final concentration of 50 mmol/L and stored at −20° C. before use. Cytotoxicity was assessed by using the 3-(4,5-dimethylthiazol-2-yl)-2,5-diphenyltetrazolium bromide (MTT) (5.0 mg/ml) assay as previously described (Wong, V. K. et al., Cell Death Dis, 2013, 4, e720). Briefly, 4×10^3 cells per well were seeded in 96-well plates before drug treatments. After overnight culture, the cells were then exposed to different concentrations of selected compounds (0.039-100 μmol/L) for 72 h. Cells without drug treatment were used as control. Subsequently, MTT (10 μL) solution was added to each well and incubated at 37° C. for 4 h followed by the addition of 100 μL solubilization buffer (10% SDS in 0.01 mol/L HCl) and overnight incubation. A570 nm was then determined in each well on the next day. The percentage of cell viability was calculated using the following formula: Cell viability (%)=Atreated/Acontrol×100. Data were obtained from three independent experiments. Cells include HeLa cells (cervical cancer), MCF-7 (breast cancer), H1299, H1975, A549 and LLC-1 (lung cancer), HepG2 and Hep3B (liver cancer) and LO2 (normal human hepatocytes).
# [1] = test system: cisplatin-resistant SGC-7901 gastric cancer cells; assay: MTT cytotoxicity, cisplatin-resistant SGC-7901; assay type: cell-based
# Description: as §1, with “experiments.” for “experiments. Cells include HeLa cells (cervical cancer), MCF-7 (breast cancer), H1299, H1975, A549 and LLC-1 (lung cancer), HepG2 and Hep3B (liver cancer) and LO2 (normal human hepatocytes).”
# (§2) All cells were obtained from the American Type Culture Collection (Rockville, Md., USA) unless otherwise specified. Immortalized wild-type and Atg7-deficient mouse embryonic fibroblasts (MEFs) were provided by Professor Masaaki Komatsu (Juntendo University, School of Medicine, Japan). Taxol-resistant types of A549, MCF-7, HCT-8 cancer cells, cisplatin-resistant SGC7901 cancer cells were purchased from KeyGEN BioTECH, China.
# Hep 3B (liver cancer) = assay: MTT cytotoxicity assay, Hep3B; assay type: cell-based; settings: 72 h
# Description: as §1
# H1975 (lung cancer) = assay: MTT cytotoxicity assay, H1975; assay type: cell-based; settings: 72 h
# Description: as §1
# [2] = test system: HeLa cells (cervical cancer); assay: MTT cytotoxicity assay, HeLa; assay type: cell-based; settings: 72 h
# Description: as §1
# [3] = test system: LO2 (normal human hepatocytes); assay: MTT cytotoxicity assay, LO2; assay type: cell-based; settings: 72 h
# Description: as §1
# HeLa cancer cells = test system: HeLa cancer cells
# Description: For cell cycle analysis, the cells were harvested and washed with ice-cold phosphate-buffered saline (PBS), and then suspended and permeabilized with 70% ethanol for overnight at 4° C. For detecting DNA content and cell cycle, cells were incubated with the freshly prepared propidium iodide (PI) staining buffer for 30 min at room temperature in dark. Fractions of the cells in G1, S, and G2/M phase were analyzed using Modfit software 3.1.
# To investigate whether the cobalt-polypyridyl complexes could suppress cancer cell growth by arresting cell cycle progression, HeLa cancer cells were treated with different concentrations of the cobalt-polypyridyl complex of Formula (IV) (with PF6^− as counterion).
# [4] = test system: Taxol-resistant HCT8 cancer cells; assay: MTT cytotoxicity, taxol-resistant HCT8; assay type: cell-based
# Description: as §1, with “experiments.” for “experiments. Cells include HeLa cells (cervical cancer), MCF-7 (breast cancer), H1299, H1975, A549 and LLC-1 (lung cancer), HepG2 and Hep3B (liver cancer) and LO2 (normal human hepatocytes).”
# as §2
# [5] = test system: Taxol-sensitive HCT8 cancer cells; assay: MTT cytotoxicity, taxol-sensitive HCT8; assay type: cell-based; settings: 72 h
# Description: as §1, with “experiments.” for “experiments. Cells include HeLa cells (cervical cancer), MCF-7 (breast cancer), H1299, H1975, A549 and LLC-1 (lung cancer), HepG2 and Hep3B (liver cancer) and LO2 (normal human hepatocytes).”
# [6] = test system: HCT116 p53^+/+ colon cancer cells; assay: MTT cytotoxicity, HCT116 p53+/+; assay type: cell-based, human; settings: 72 h
# Description: as §1, with “experiments.” for “experiments. Cells include HeLa cells (cervical cancer), MCF-7 (breast cancer), H1299, H1975, A549 and LLC-1 (lung cancer), HepG2 and Hep3B (liver cancer) and LO2 (normal human hepatocytes).”
# (§3) Cisplatin-sensitive or -resistant A2780, OV2008 and C13 cancer cells were provided by Prof. Benjamin Tsang (Department of Obstetrics and Gynecology and Department of Cellular and Molecular Medicine, University of Ottawa, Canada). HCT116 p53^+/+ and p53^−/− isogenic human colon cancer cells were provided by Professor Bert Vogelstein (Ludwig Center at Johns Hopkins, Howard Hughes Medical Institute, USA). All media were supplemented with 10% fetal bovine serum and the antibiotics penicillin (50 U/ml) and streptomycin (50 μg/ml; Invitrogen, Paisley, Scotland, UK). All cell cultures were incubated at 37° C. in a 5% humidified CO2 incubator.
# [7] = test system: Taxol-resistant MCF-7 cancer cells; assay: MTT cytotoxicity, taxol-resistant MCF-7; assay type: cell-based
# Description: as §1, with “experiments.” for “experiments. Cells include HeLa cells (cervical cancer), MCF-7 (breast cancer), H1299, H1975, A549 and LLC-1 (lung cancer), HepG2 and Hep3B (liver cancer) and LO2 (normal human hepatocytes).”
# as §2
# [8] = test system: cisplatin-resistant A2780 ovarian cancer cells; assay: MTT cytotoxicity, cisplatin-resistant A2780; assay type: cell-based
# Description: as §1, with “experiments.” for “experiments. Cells include HeLa cells (cervical cancer), MCF-7 (breast cancer), H1299, H1975, A549 and LLC-1 (lung cancer), HepG2 and Hep3B (liver cancer) and LO2 (normal human hepatocytes).”
# as §3
# [9] = test system: cisplatin-sensitive A2780 ovarian cancer cells; assay: MTT cytotoxicity, cisplatin-sensitive A2780; assay type: cell-based; settings: 72 h
# Description: as §1, with “experiments.” for “experiments. Cells include HeLa cells (cervical cancer), MCF-7 (breast cancer), H1299, H1975, A549 and LLC-1 (lung cancer), HepG2 and Hep3B (liver cancer) and LO2 (normal human hepatocytes).”
# as §3
# [10] = test system: HCT116 p53^−/− colon cancer cells; assay: MTT cytotoxicity, HCT116 p53-/-; assay type: cell-based, human
# Description: as §1, with “experiments.” for “experiments. Cells include HeLa cells (cervical cancer), MCF-7 (breast cancer), H1299, H1975, A549 and LLC-1 (lung cancer), HepG2 and Hep3B (liver cancer) and LO2 (normal human hepatocytes).”
# as §3
# [11] = test system: Taxol-sensitive A549 cancer cells; assay: MTT cytotoxicity, taxol-sensitive A549; assay type: cell-based; settings: 72 h
# Description: as §1, with “experiments.” for “experiments. Cells include HeLa cells (cervical cancer), MCF-7 (breast cancer), H1299, H1975, A549 and LLC-1 (lung cancer), HepG2 and Hep3B (liver cancer) and LO2 (normal human hepatocytes).”
# [12] = test system: endogenous LC3-II puncta formation in HeLa cancer cells; settings: HeLa, 5, 10, 20 μM
# Description: The detection of endogenous LC3 was conducted using immunofluorescence staining method as described below. HeLa cancer cells treated with the cobalt-polypyridyl complex of Formula (IV) (with PF6^− as counterion) on cover slips were fixed with 4% paraformaldehyde (Sigma) for 20 min at room temperature and then rinsed with PBS. Coverslips were immersed in methanol at room temperature for 2 min. After washing with PBS, the cells were then incubated with anti-LC3 (1:200) in TBST (100 mM TrisHCl, pH 7.5, 150 mM NaCl, 0.05% Tween 20 and 5% BSA) overnight at 4° C. […] The coverslips were then mounted with FluorSave™ mounting media (Calbiochem, San Diego, Calif., USA) for fluorescence imaging and localization of LC3 autophagosomes were captured under the API Delta Vision Live-cell Imaging System (Applied Precision Inc., GE Healthcare Company, Washington, USA). To quantify autophagy, guidelines of autophagy quantitation were followed (Klionsky, D. J. et al., Autophagy, 2016, 12, 1-222). The percentage of cells with autophagic induction was calculated by the number of the cells with increased formation of punctate LC3 fluorescence dots (≧10 dots/cell) over the total number of immunofluorescence-positive cells in the same field. A minimum of 1000 cells from randomly selected fields were scored.
# [13] = test system: cisplatin-sensitive SGC-7901 gastric cancer cells; assay: MTT cytotoxicity, cisplatin-sensitive SGC-7901; assay type: cell-based; settings: SGC-7901, MTT, 72 h
# Description: as §1, with “experiments.” for “experiments. Cells include HeLa cells (cervical cancer), MCF-7 (breast cancer), H1299, H1975, A549 and LLC-1 (lung cancer), HepG2 and Hep3B (liver cancer) and LO2 (normal human hepatocytes).”
# [14] = test system: OV2008 cervical cancer cells; assay: MTT cytotoxicity, OV2008 (cisplatin-sensitive); assay type: cell-based; settings: 72 h
# Description: as §1, with “experiments.” for “experiments. Cells include HeLa cells (cervical cancer), MCF-7 (breast cancer), H1299, H1975, A549 and LLC-1 (lung cancer), HepG2 and Hep3B (liver cancer) and LO2 (normal human hepatocytes).”
# as §3
# HepG2 (liver cancer) = assay: MTT cytotoxicity assay, HepG2; assay type: cell-based; settings: 72 h
# Description: as §1
structure (smiles),measurement,setting,value
"Cc1ccnc(-c2cc(C)ccn2)c1.Cc1ccnc(-c2cc(C)ccn2)c1.Cc1ccnc(-c2cc(C)ccn2)c1.F[P-](F)(F)(F)(F)F.F[P-](F)(F)(F)(F)F.F[P-](F)(F)(F)(F)F.[Co+3] [complex (IV), [Co^III(4,4′-Me2-Bpy)3.](PF6)3]",pIC50,LLC-1 (lung cancer),5.47
same,pIC50,"[1]; SGC-7901, MTT, 72 h",4.90
same,Resistant Factor,"[1]; SGC-7901, cisplatin-resistant over cisplatin-sensitive",1.14
same,pIC50,Hep 3B (liver cancer),5.43
same,pIC50,H1975 (lung cancer),5.05
same,pIC50,[2],4.92
same,pIC50,[3],4.88
same,effect on cell cycle progression,HeLa cancer cells; high concentration,arrest HeLa cancer cell in S-phase
same,effect on cell cycle progression,HeLa cancer cells; low concentration,negligible effect on cell cycle progression
same,pIC50,"[4]; HCT8, MTT, 72 h",5.91
same,Resistant Factor,"[4]; HCT8, IC50 taxol-resistant over IC50 taxol-sensitive",0.36
same,pIC50,[5],5.47
same,pIC50,[6],4.81
same,pIC50,"[7]; MCF-7, MTT, 72 h",5.57
same,Resistant Factor,"[7]; MCF-7, IC50 taxol-resistant over IC50 taxol-sensitive",0.68
same,pIC50,"[8]; A2780, MTT, 72 h",4.97
same,Resistant Factor,"[8]; A2780, cisplatin-resistant over cisplatin-sensitive",0.87
same,pIC50,[9],4.91
same,Resistant Factor,[10]; HCT116 p53^−/− over HCT116 p53^+/+,0.59
same,pIC50,"[10]; MTT, 72 h",5.04
same,pIC50,[11],4.94
same,endogenous LC3-II puncta formation (autophagy induction),[12],induce autophagy in dose-dependent manner
same,pIC50,[13],4.95
same,pIC50,[14],5.12
same,pIC50,HepG2 (liver cancer),5.26
